Ends that are not written are not given here.
Assays:
[1] = system: INS-1E cells; test: Insulin content (RIA) of INS-1E lysates; type: cell-based, rat; details: 24 h
Method: (§1) FIG. 7, comprising FIG. 7A through FIG. 7G, depicts the evaluation of the biological activity of HSA-28P in INS-1E cells. FIG. 7A depicts dose-response analysis of the effect of HSA-28P on the rate of insulin secretion in INS-1E cells. The INS-1E cells were grown and trypsinized as described in Methods. Subsequently, cells were mixed with the indicated concentrations of HSA-28P (red columns), non-relevant peptide nanoparticles (NRPNP, green columns), and naked nanoparticles (NP, blue columns) and were seeded in 12-well plates. After 24 h the cells were taken to a GSIS in the presence of 2.5 mM (weak color bars) or 16.7 mM (strong color bars) glucose. […] INS-1E cells were treated as described in Panel D. Cells were detached by trypsin and counted as described in Methods and then were visualized with a Cells Sense Live Imaging microscope. […]
The lysis buffer contained 50 mmol/L Tris-HCl, pH 7.5, 1 mmol/L EDTA, 1 mmol/L EGTA, 1 mmol/L Na3VO4, 150 mmol/L NaCl, 50 mmol/L NaF, 10 mmol/L sodium-glycerophosphate, 5 mmol/L sodium pyrophosphate, and 1 mmol/L PMSF, supplemented with 0.1% (v/v) IGEPAL, 0.1% (v/v) 2-β-mercaptoethanol, and protease inhibitor cocktail (1:100 dilution). […] Protein content in the supernatant was determined by Bradford analysis, using a BSA standard dissolved in the same buffer. […]

[2] = system: INS-1E cells; test: MTT cell viability under glucose oxidase-induced oxidative stress; type: cell-based, rat
Method: as §1, with “glucose. FIG. 7B depicts time-course analysis of the effect of HSA-28P on the rate of insulin secretion in INS-1E cells. The INS-1E cells were prepared for the experiment as described above with 1.34 μM of both HSA-28P or NRPNP, and 0.76 μg/ml of NP.” for “glucose.”
Briefly, cells were incubated with MTT (2 mg/mL) in growth medium for 30 min at 37° C. […] Absorbance at 570 nm was measured in a SpectraMax M5 spectrophotometer (Sunnyvale, Calif., USA). The obtained results were normalized by total protein content in culture cells, which was measured using the Bradford reagent. […]

HSA-112: HSA-28 dimer formed by bridging two HSA-28 monomers via amide bond formation with active ester PEG2,000 (QQGEFLNYD-NH2; not fully specified (N-terminus); also: dimer of two HSA-28 monomers bridged via amide bonds with active ester PEG2000)
effect on cellular / total insulin content [1]: did not affect the cellular insulin content
cell protective effect compared with trolox ([2]; glucose oxidase-induced oxidative stress): almost identical to that of the well-known antioxidant (trolox)
effect on cell viability under oxidative stress ([2]; glucose oxidase/glucose system, 24 h): cytoprotective effect

From patent US20230079439A1, “Compositions and Methods for Enhancing Beta Cell Maturation, Health and Function” (THE REGENTS OF THE UNIVERSITY OF CALIFORNIA, priority 2016, published 2023)
